Results as given in patent US6849602B1 (The Regents of the University of California, priority 1996, dated 2005).
Non-standard residues stand in square brackets, D forms with d. No end group written: not given here.

System: streptozotocin (STZ)-diabetic rats
Experiment: Formalin flinch test in streptozotocin-diabetic rats
Type: in vivo, rat
Design: hyperalgesia in formalin test / formalin-induced pain (allodynia): dose or concentration left out as unconfirmed
Experimental: Rats were made diabetic by a single intraperitoneal injection of streptozotocin (STZ) (50 mg/kg body weight, freshly dissolved in 0.9% sterile saline) to ablate pancreatic β cells and induce insulin deficiency as described in Calcutt et al., Pain 68:293-299 (1996). Two days later, diabetes was confirmed in streptozotocin-injected rats by measuring blood glucose levels. Streptozotocin-injected animals with a blood glucose concentration below 15 mmol/l were excluded from subsequent studies, according to the commonly accepted definition of non-fasting hyperglycemia in studies of diabetes in rats.
Both diabetic and control rats were studied at 8 weeks by analyzing the behavioral response to the noxious chemical formalin as an indicator of allodynia (Calcutt et al. supra (1996)). Briefly, rats received a subcutaneous injection of freshly-prepared formalin (50 μl of 0.5% solution in sterile saline) into the dorsal surface of the right hind paw. This concentration of formalin induces sub-maximal behavioral responses in control rats and allows detection of hyperalgesia in diabetic rats during phases Q and 2 (Calcutt et al., Eur. J. Pharmacol. 285:189-197 (1995). Animals were transferred to an observation chamber constructed to allow continuous visualization of the paws. The number of flinches during one minute periods were counted at 5 minute intervals for the next 60 minutes by an observer who was unaware of the treatment group of each animal. Phase 1 was defined as the initial measurement of flinching (1-2 and 5-6 minutes post injection); the Q (quiescent) phase as the measurements made at 10-11, 15-16 and 20-21 minutes; and Phase 2 as all subsequent measurements post injection, as previously defined for studies of diabetic rats (see, for example, Malmberg et al., Neurosci. […] Comparisons of activity during each phase were made by summing the flinches at measurement points within the phase. Diabetic rats gave an abnormal flinch response, as has been reported previously.
Peptide SEQ ID NO:2 was obtained in pure form by chemical synthesis, dissolved in sterile PBS and buffered to a neutral pH. Diabetic rats were divided in two groups of four animals each, which were administered saline or peptide SEQ ID NO:2, respectively.
The formalin testing was done after 4 weeks, of three time weekly injections, and testing was done after the last dose (last bar, FIG. 7).
This EXAMPLE was designed to determine whether prosaptide could also reverse conduction deficits and hyperalgesia in the formalin test pain model once these disorders are established in diabetic rats. SNCV was measured before onset of diabetes and 4-8 weeks later in groups of control, untreated diabetic and prosaptide-treated (200 μg/kg i.p. thrice weekly for the last 4 weeks) diabetic rats. Flinch responses to injection of formalin (50 μl or 0.5% or 5.0% solution) were followed for 60 min in control, 8 week untreated diabetic, […] with prosaptide (200 μg/kg i.p.) thrice weekly for the last 4 weeks (the last treatment being 48-72 hr pre-test).

[1] = 200 μg/kg intraperitoneal, two hours before 0.5% formalin

T[dA]LIDNNATEEILY [SEQ ID NO:2]
hyperalgesia during the formalin test (200 μg/kg i.p. thrice weekly for the last 4 weeks, last treatment 48-72 hr pre-test): reduction in hyperalgesia
abnormal flinch response in Phase 1 [1]: completely prevented the abnormal flinch response
amelioration of the flinch response in Phase 2 [1]: 70%
hyperalgesia in formalin test (after 8 weeks of diabetes, i.p. 30 min before testing): reversed the hyperalgesia
hyperalgesia in the diabetic rat (given parenterally, FIG. 7): reverses hyperalgesia
hyperalgesia during the formalin test (single bolus 200 μg/kg i.p. 30 min pre-test, 8 week diabetic rats): effective in abolishing hyperalgesia
formalin-induced pain (allodynia) (three time weekly injections for 4 weeks): prevention of formalin-induced pain (allodynia)
